The text below walks through data of PubChem BioAssay (NCI).

The structures appear in SMILES notation.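 Five concentrations, 48 hours, 96-well plates. Here, GI50 denotes the concentration required for 50% inhibition of growth. TGI marks complete inhibition of growth.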

Common to all, as to test: NCI anticancer screen, dose series, 48 h
Experiment [1] has as its system MOLT-4 leukemia.
In experiment [2] the test system is UACC-62 melanoma.
For experiment [3], the system named is OVCAR-8 ovarian.
For experiment [4], the system named is SF-295 CNS.
Experiment [5] deals with SF-268 CNS.
For experiment [6], the system named is SR leukemia.
Experiment [7] concerns OVCAR-5 ovarian.
Experiment [8] concerns SW-620 colon.
Experiment [9] concerns LOX IMVI melanoma.
Experiment [10] relates to HL-60(TB) leukemia.

In the case of `C[C@]12CC[C@@H]3c4ccc(O)cc4CC[C@H]3[C@@H]1CC[C@@H]2NS(=O)(=O)c1cccc(Cl)c1`, the GI50 in experiment [1] was 2.14 µM; in experiment [2], 1.86 µM; in [3], 3.27 µM; in experiment [4] it was 3.1 µM; in experiment [5], 3.23 µM; in experiment [6], 2.15 µM. The GI50 in experiment [7] was 2.59 µM; in experiment [8], 3.91 µM; in [9] it was 1.75 µM. In addition, the TGI in experiment [1] stood at 8.97 µM; in experiment [2], 4.84 µM; in experiment [3] it was 13.3 µM; in experiment [4] it was 10.8 µM; in experiment [5], 13.6 µM; in experiment [6], 6.6 µM. The values for the TGI in [7], in experiment [8] and in experiment [9] were 8.54 µM, 15 µM and 3.4 µM, respectively.
Turning to `Cc1c(NC(=O)CCl)c(=O)oc2c(C)c3occc(=O)c3cc12`, the TGI turned out to be 17.9 µM in experiment [1]; 43.2 µM in experiment [3]; 25.2 µM in experiment [4]; 21.9 µM in [10]; 25.9 µM in [5]; 58 µM in experiment [6]. The TGI in experiment [7] is 32.4 µM; in experiment [8], 30.6 µM.
In the case of `CC(=Nc1ccccc1)C1=C(O)C(Cc2cccc(F)c2)NC1=O` (stereo not drawn), the GI50 in [1] was 0.158 µM; in experiment [2] it was 0.0546 µM; in [3], 0.122 µM; in experiment [4], 0.0312 µM; in [10], 0.0334 µM; in experiment [5], 0.071 µM. Besides, the GI50 was 0.0239 µM in experiment [6], 0.253 µM in experiment [7], 0.0419 µM in experiment [8] and 0.0667 µM in experiment [9]. The TGI is > 100 µM in experiment [1]; > 100 µM in experiment [2]; > 100 µM in experiment [3]; 0.184 µM in experiment [4]; > 100 µM in experiment [5]; > 72.8 µM in [6]. In addition, the TGI in experiment [7], in experiment [8] and in [9] was > 100 µM in each case.
With `CCCCCCCN(CCCCCCC)C(=N)c1ccnc2ccccc12`, the GI50 in experiment [1] is 1.7 µM; in experiment [2] it was 1.52 µM; in [3], 1.63 µM; in [4], 1.69 µM; in experiment [10] it was 1.75 µM; in [5], 1.48 µM. The GI50 in experiment [6] is 1.01 µM; in experiment [7], 1.8 µM; in experiment [8], 1.28 µM; in experiment [9] it was 1.42 µM. Moreover, the TGI in experiment [1] turned out to be 4.4 µM; in experiment [2], 3.05 µM; in experiment [3], 3.48 µM; in [4], 3.45 µM; in experiment [10], 3.7 µM; in experiment [5], 3.03 µM. Further, the TGI in [6] worked out at 2.96 µM; in experiment [7], 3.6 µM; in experiment [8], 2.91 µM; in experiment [9], 2.82 µM.
As to `O=C1NC(=O)[C@@]2(CC[C@@H](O)C2)c2ccncc21`, the TGI in [1], in experiment [2], in experiment [3], in [10], in [5] and in [6] was > 100 µM throughout. In addition, the TGI in experiment [7], in experiment [8] and in experiment [9] was > 100 µM in each case.
Regarding `CC/C=C\C[C@H](O)C/C=C1/C(=O)C=C[C@@H]1C/C=C\CCCC(=O)OC(C)C`, the GI50 in experiment [1] was 1.24 µM; in [2] it was 1.37 µM; in experiment [3], 2.8 µM; in experiment [4] it was 2.91 µM; in experiment [10], 0.824 µM; in experiment [5], 2 µM. Further, the GI50 was 0.896 µM in experiment [6], 3.07 µM in [7], 0.572 µM in [8] and 0.18 µM in [9]. In addition, the TGI came out at 6.36 µM in experiment [1]; 3.16 µM in [2]; 8.38 µM in experiment [3]; 8.34 µM in experiment [4]; 6.71 µM in [10]; 6.31 µM in experiment [5]. The TGI in [6] is 5.01 µM; in experiment [7], 8.41 µM; in experiment [8], 2.32 µM; in [9] it was 0.41 µM.
As to `C=C1C(=O)O[C@H]2[C@H]1CC/C(COC(=O)c1cn(C)c3ccccc13)=C\CC[C@@]1(C)O[C@@H]21`, the GI50 in experiment [1] was 0.578 µM; in experiment [2], 1.26 µM; in experiment [3], 0.8 µM; in [4], 2.41 µM; in experiment [10] it was 1.54 µM; in experiment [5] it was 1.3 µM. For the same molecule, the GI50 in [6] is 0.342 µM; in [7], 1.56 µM; in [8], 0.301 µM; in [9], 0.228 µM. For the same molecule, the TGI amounted to 3.54 µM in experiment [1]; 2.74 µM in experiment [2]; 2.4 µM in experiment [3]; 6.98 µM in experiment [4]; 4.17 µM in experiment [10]; 2.86 µM in [5]. Besides, the TGI in experiment [6] came out at 1.17 µM; in experiment [7], 4.11 µM; in experiment [8], 1.1 µM; in experiment [9], 0.81 µM.
Take `COC(NC(N)=O)C(=O)O` (stereo not drawn): the TGI in [1], in experiment [2], in experiment [3], in experiment [4], in experiment [10] and in experiment [5] was > 100 µM in each case. Further, the TGI in experiment [6], in experiment [7] and in experiment [8] was > 100 µM throughout.
On to `COc1cccc(-n2ncc3c(N/N=C/c4ccc(C)cc4)ncnc32)c1`, for which the GI50 in experiment [1], in experiment [2], in experiment [3], in experiment [4], in experiment [10] and in [5] was > 25 µM each time. For the same molecule, the GI50 in experiment [6] was > 14.4 µM; in experiment [7] it was > 25 µM; in [8], > 25 µM; in experiment [9], > 25 µM. The TGI in [1], in experiment [2], in experiment [3], in [4], in [10] and in experiment [5] was > 25 µM throughout. Moreover, the TGI in experiment [6], in experiment [7], in [8] and in experiment [9] was > 25 µM throughout.
